What was measured:
[1] = test system: Spodoptera litura; test: Test against larva of Spodoptera litura (leaf dip); assay type: in vivo; settings: 100 ppm of the active compound; third instar larvae; after 7 days
Procedure: Solvent: Dimethylformamide 3 parts by weight
Emulsifier: Polyoxyethylene alkyl phenyl ether 1 part by weight
(§1) To prepare an appropriate formulation of an active compound, 1 part by weight of the active compound was mixed with the aforementioned amount of the solvent containing the aforementioned amount of the emulsifier, and the mixture was diluted to a prescribed concentration with water.
Leaves of sweet potate were soaked in the test agent diluted to a prescribed concentration with water, air-dried, and placed in a dish of 9 cm in diameter. Into this dish, 10 larvae of Spodoptera litura at the third instar were released and kept in a room at constant temperature of 25° C. After 2 and 4 days, more leaves of sweet potato were added, and the number of dead larvae after 7 days was counted to calculate the death rate. In this test, the test results are presented as an average of the results of two dishes per section.

[2] = test system: Aulacophora femoralis; test: Test against Aulacophora femoralis (leaf dip); assay type: in vivo; settings: 100 ppm of the active compound; second instar larvae; after 7 days
Procedure: as §1
Leaves of cucumbers were soaked in a diluted aqueous solution of the prescribed concentration of an active compound prepared in the same manner as in the aforementioned tests, air-dried, and placed a plastic cup containing sterilized black soil. Into this cup, 5 larvae of Aulacophora femoralis at second instar were then released. After 7 days, the number of dead larvae was counted to calculate the death rate.

[3] = test system: Lucilia cuprina larvae; test: whole plant or invertebrate; settings: in Equus caballus, read-out: activity (mortality in %)
[4] = test system: Musca domestica; test: whole plant or invertebrate; settings: read-out: activity (mortality in %)
[5] = test system: organic phosphorus agent- and carbamate agent-resistant Myzus persicae; test: Test against organic phosphorus agent- and carbamate agent-resistant Myzus persicae (spray); assay type: in vivo; settings: 500 ppm of the active compound; adults on eggplant; 7 days at 28° C.
Procedure: as §1
About 30 to 50 adults of organic phosphorus agent- and carbamate agent-resistant Myzus persicae per seedling were inoculated to leaves of eggplants at two leaf stage cultured in a pot of 6 cm in diameter. One day after the inoculation, an ample amount of the diluted aqueous solution of the prescribed concentration of an active compound prepared in the same manner as in the aforementioned tests was sprayed with a spray gun. After the spraying, the pot was kept in a greenhouse at 28° C. for 7 days, the death rate was calculated. The test was duplicated.

[6] = test system: Boophilus microplus; test: whole plant or invertebrate; settings: Rhipicephalus microplus, 168 h, read-out: activity (mortality in %)

## CC(=O)NCc1ccc(C2=NOC(c3cc(Cl)cc(Cl)c3)(C(F)(F)F)C2)cc1 (centres unmarked) [1-1, N-{4-[5-(3,5-dichlorophenyl)-5-(trifluoromethyl)-4,5-dihydroisoxazol-3-yl]benzyl}acetamide]
[1]
  death rate: 100%
[2]
  death rate: 100%
[3]
  mortality at 100 ppm: ≥ 80%
[4]
  mortality at 100 ppm: ≥ 80%

## CC(=O)N(Cc1ccc(C2=NOC(c3cc(Cl)cc(Cl)c3)(C(F)(F)F)C2)cc1)C(C)=O (centres unmarked) [1-2]
[1]
  death rate: 100%
[2]
  death rate: 100%

## O=CN(Cc1ccc(C2=NOC(c3cc(Cl)cc(Cl)c3)(C(F)(F)F)C2)cc1)Cc1ccccn1 (centres unmarked) [1-4]
[1]
  death rate: 100%

## CCC(=O)N(Cc1ccc(C2=NOC(c3cc(Cl)cc(Cl)c3)(C(F)(F)F)C2)cc1)Cc1ccccn1 (centres unmarked) [1-6]
[1]
  death rate: 100%
[2]
  death rate: 100%

## CC(=O)N(Cc1ccccn1)C(C#N)c1ccc(C2=NOC(c3cc(Cl)cc(Cl)c3)(C(F)(F)F)C2)cc1 (centres unmarked) [1-11, N-(cyano{4-[5-(3,5-dichlorophenyl)-5-(trifluoromethyl)-4,5-dihydroisoxazol-3-yl]phenyl}methyl)-N-(pyridin-2-ylmethyl)-acetamide]
[1]
  death rate: 100%
[2]
  death rate: 100%

## O=CNCc1ccc(C2=NOC(c3cc(Cl)cc(Cl)c3)(C(F)(F)F)C2)cc1Br (centres unmarked) [1-12]
[1]
  death rate: 100%
[2]
  death rate: 100%

## CC(=O)NCc1ccc(C2=NOC(c3cc(Cl)cc(Cl)c3)(C(F)(F)F)C2)cc1Br (centres unmarked) [1-13]
[1]
  death rate: 100%
[2]
  death rate: 100%

## CC(=O)N(Cc1ccccn1)Cc1ccc(C2=NOC(c3cc(Cl)cc(Cl)c3)(C(F)(F)F)C2)cc1Br (centres unmarked) [1-15, N-{2-bromo-4-[5-(3,5-dichlorophenyl)-5-(trifluoromethyl)-4,5-dihydroisoxazol-3-yl]benzyl}-N-(pyridin-2-ylmethyl)acetamide]
[1]
  death rate: 100%
[2]
  death rate: 100%
[3]
  mortality at 100 ppm: ≥ 80%
[4]
  mortality at 100 ppm: ≥ 80%

## CC(=O)N(Cc1cccnc1)Cc1ccc(C2=NOC(c3cc(Cl)cc(Cl)c3)(C(F)(F)F)C2)cc1Br (centres unmarked) [1-16]
[1]
  death rate: 100%
[2]
  death rate: 100%

## CC(=O)N(Cc1ccncc1)Cc1ccc(C2=NOC(c3cc(Cl)cc(Cl)c3)(C(F)(F)F)C2)cc1Br (centres unmarked) [1-17]
[1]
  death rate: 100%
[2]
  death rate: 100%

## CCC(=O)NCc1ccc(C2=NOC(c3cc(Cl)cc(Cl)c3)(C(F)(F)F)C2)cc1Br (centres unmarked) [1-19]
[1]
  death rate: 100%
[2]
  death rate: 100%

## CCCC(=O)NCc1ccc(C2=NOC(c3cc(Cl)cc(Cl)c3)(C(F)(F)F)C2)cc1Br (centres unmarked) [1-20]
[1]
  death rate: 100%
[2]
  death rate: 100%

## CC(C)C(=O)NCc1ccc(C2=NOC(c3cc(Cl)cc(Cl)c3)(C(F)(F)F)C2)cc1Br (centres unmarked) [1-21]
[1]
  death rate: 100%
[2]
  death rate: 100%

## O=C(NCc1ccc(C2=NOC(c3cc(Cl)cc(Cl)c3)(C(F)(F)F)C2)cc1Br)C(F)(F)F (centres unmarked) [1-23]
[1]
  death rate: 100%
[2]
  death rate: 100%

## O=C(NCc1ccc(C2=NOC(c3cc(Cl)cc(Cl)c3)(C(F)(F)F)C2)cc1Br)c1ccccc1 (centres unmarked) [1-24]
[1]
  death rate: 100%
[2]
  death rate: 100%

## O=C(NCc1ccc(C2=NOC(c3cc(Cl)cc(Cl)c3)(C(F)(F)F)C2)cc1Br)c1ccccn1 (centres unmarked) [1-25]
[1]
  death rate: 100%

## O=C(NCc1ccc(C2=NOC(c3cc(Cl)cc(Cl)c3)(C(F)(F)F)C2)cc1Br)c1cccnc1 (centres unmarked) [1-26]
[1]
  death rate: 100%
[2]
  death rate: 100%

## O=C(NCc1ccc(C2=NOC(c3cc(Cl)cc(Cl)c3)(C(F)(F)F)C2)cc1Br)c1ccncc1 (centres unmarked) [1-27]
[1]
  death rate: 100%
[2]
  death rate: 100%

## O=C(NCc1ccc(C2=NOC(c3cc(Cl)cc(Cl)c3)(C(F)(F)F)C2)cc1Br)c1ccccc1F (centres unmarked) [1-28]
[1]
  death rate: 100%
[2]
  death rate: 100%

## O=C(NCc1ccc(C2=NOC(c3cc(Cl)cc(Cl)c3)(C(F)(F)F)C2)cc1Br)c1ccccc1Cl (centres unmarked) [1-31]
[1]
  death rate: 100%
[2]
  death rate: 100%
[5]
  death rate: 100%

## O=C(NCc1ccc(C2=NOC(c3cc(Cl)cc(Cl)c3)(C(F)(F)F)C2)cc1Br)c1cccc(Cl)c1 (centres unmarked) [1-32]
[1]
  death rate: 100%
[2]
  death rate: 100%

## O=C(NCc1ccc(C2=NOC(c3cc(Cl)cc(Cl)c3)(C(F)(F)F)C2)cc1Br)c1ccc(Cl)cc1 (centres unmarked) [1-33]
[2]
  death rate: 100%

## O=C(NCc1ccc(C2=NOC(c3cc(Cl)cc(Cl)c3)(C(F)(F)F)C2)cc1Br)c1ccccc1Br (centres unmarked) [1-34]
[1]
  death rate: 100%
[2]
  death rate: 100%

## Cc1ccccc1C(=O)NCc1ccc(C2=NOC(c3cc(Cl)cc(Cl)c3)(C(F)(F)F)C2)cc1Br (centres unmarked) [1-35]
[1]
  death rate: 100%
[2]
  death rate: 100%

## C=CC(=O)NCc1ccc(C2=NOC(c3cc(Cl)cc(Cl)c3)(C(F)(F)F)C2)cc1Br (centres unmarked) [1-36]
[1]
  death rate: 100%
[2]
  death rate: 100%

## CS(=O)(=O)NCc1ccc(C2=NOC(c3cc(Cl)cc(Cl)c3)(C(F)(F)F)C2)cc1Br (centres unmarked) [1-38]
[1]
  death rate: 100%
[2]
  death rate: 100%

## CNC(=O)NCc1ccc(C2=NOC(c3cc(Cl)cc(Cl)c3)(C(F)(F)F)C2)cc1Br (centres unmarked) [1-40]
[1]
  death rate: 100%
[2]
  death rate: 100%

## CN(C)C(=O)NCc1ccc(C2=NOC(c3cc(Cl)cc(Cl)c3)(C(F)(F)F)C2)cc1Br (centres unmarked) [1-41]
[1]
  death rate: 100%
[2]
  death rate: 100%

## CSC(=O)NCc1ccc(C2=NOC(c3cc(Cl)cc(Cl)c3)(C(F)(F)F)C2)cc1Br (centres unmarked) [1-43]
[1]
  death rate: 100%

## CC(=O)N(C)Cc1ccc(C2=NOC(c3cc(Cl)cc(Cl)c3)(C(F)(F)F)C2)cc1Br (centres unmarked) [1-46]
[1]
  death rate: 100%
[2]
  death rate: 100%

## CC(=O)NCc1ccc(C2=NOC(c3cc(Cl)cc(Cl)c3)(C(F)(F)F)C2)cc1F (centres unmarked) [1-57]
[1]
  death rate: 100%
[2]
  death rate: 100%

## CC(=O)NCc1ccc(C2=NOC(c3cc(Cl)cc(Cl)c3)(C(F)(F)F)C2)cc1Cl (centres unmarked) [1-58]
[1]
  death rate: 100%
[2]
  death rate: 100%

## CC(=O)NCc1ccc(C2=NOC(c3cc(Cl)cc(Cl)c3)(C(F)(F)F)C2)cc1I (centres unmarked) [1-59]
[1]
  death rate: 100%
[2]
  death rate: 100%

## CC(=O)NCc1ccc(C2=NOC(c3cc(Cl)cc(Cl)c3)(C(F)(F)F)C2)cc1[N+](=O)[O-] (centres unmarked) [1-60, N-{4-[5-(3,5-dichlorophenyl)-5-(trifluoromethyl)-4,5-dihydroisoxazol-3-yl]-2-nitrobenzyl}acetamide]
[1]
  death rate: 100%
[2]
  death rate: 100%
[3]
  mortality at 100 ppm: ≥ 80%
[4]
  mortality at 100 ppm: ≥ 80%
[6]
  mortality at 100 ppm: ≥ 80%

## CC(=O)NCc1ccc(C2=NOC(c3cc(Cl)cc(Cl)c3)(C(F)(F)F)C2)cc1C#N (centres unmarked) [1-62]
[1]
  death rate: 100%
[2]
  death rate: 100%

## CC(=O)NCc1ccc(C2=NOC(c3cc(Cl)cc(Cl)c3)(C(F)(F)F)C2)cc1C (centres unmarked) [1-63, N-{4-[5-(3,5-dichlorophenyl)-5-(trifluoromethyl)-4,5-dihydroisoxazol-3-yl]-2-methylbenzyl}acetamide]
[1]
  death rate: 100%
[2]
  death rate: 100%
[3]
  mortality at 100 ppm: ≥ 80%
[4]
  mortality at 100 ppm: ≥ 80%
[6]
  mortality at 100 ppm: ≥ 80%

## CC(=O)N(Cc1ccc(C2=NOC(c3cc(Cl)cc(Cl)c3)(C(F)(F)F)C2)cc1Br)N=C(C)C (centres unmarked) [1-90]
[1]
  death rate: 100%

## CC(=O)NCc1ccc(C2=NOC(C)(c3cc(Cl)cc(Cl)c3)C2)cc1Br (centres unmarked) [1-93]
[2]
  death rate: 100%

## CC(=O)NCc1ccc(C2=NOC(c3ccc(Cl)c(Cl)c3)(C(F)(F)F)C2)cc1Br (centres unmarked) [1-94]
[1]
  death rate: 100%
[2]
  death rate: 100%

## CC(=O)NCc1ccc(C2=NOC(C)(c3cccc(F)c3)C2)cc1Br (centres unmarked) [1-97]
[1]
  death rate: 100%
[2]
  death rate: 100%

## CC(=O)NCc1ccc(C2=NOC(c3cccc(Cl)c3)(C(F)(F)F)C2)cc1Br (centres unmarked) [1-98]
[1]
  death rate: 100%
[2]
  death rate: 100%

## CC(=O)NCc1ccc(C2=NOC(c3cccc(C(F)(F)F)c3)(C(F)(F)F)C2)cc1Br (centres unmarked) [1-99]
[1]
  death rate: 100%
[2]
  death rate: 100%

## CC(=O)NCc1ccc(C2=NOC(c3ccc(C(F)(F)F)cc3)(C(F)(F)F)C2)cc1Br (centres unmarked) [1-100]
[1]
  death rate: 100%
[2]
  death rate: 100%

## CC(=O)NCc1ccc(C2=NOC(c3cc(C(F)(F)F)cc(C(F)(F)F)c3)(C(F)(F)F)C2)cc1Br (centres unmarked) [1-101]
[1]
  death rate: 100%
[2]
  death rate: 100%

## CC(=O)NCc1ccc(C2=NOC(c3cccc([N+](=O)[O-])c3)(C(F)(F)F)C2)cc1Br (centres unmarked) [1-102]
[2]
  death rate: 100%

## CC(=O)NCc1ccc(C2=NOC(c3cccc(C#N)c3)(C(F)(F)F)C2)cc1Br (centres unmarked) [1-106]
[2]
  death rate: 100%
